Results as given in patent US20080070852A1, “3-Beta-D-Ribofuranosylthiazolo[ 4,5-D] Pyridimine Nucleosides and Uses Thereof” (priority 2004, published 2008).
Where a name gives a salt, the structure may show the parent alone.

Assays:
Caco-2 cells = test: in vitro; type: in vitro ADME; settings: human
Description: (§1) See, e.g., Hilgers, A. R. et al., Pharm. Res., 20(8), 1149-55 (August 2003).

in vitro = in vitro ADME; settings: human, Caco-2
Description: as §1

| melting point | Caco2 transport compared with 79 (Caco-2 cells) | Papp A→B (in vitro) | SMILES |
| --- | --- | --- | --- |
| > 112 °C |  |  | CN(C)c1nc(N)nc2c1sc(=O)n2[C@@H]1O[C@H](CO)[C@@H](O)[C@H]1O [Compound 20, 5-Amino-7-dimethylamino-3-β-D-ribofuranosylthiazolo[4,5-d]pyrimidin-2-one] |
| > 108 °C |  |  | CNc1nc(N)nc2c1sc(=O)n2[C@@H]1O[C@H](CO)[C@@H](O)[C@H]1O [Compound 18] |
| > 155 °C (dec.) |  |  | Nc1nc(N)c2sc(=O)n([C@@H]3O[C@H](CO)[C@@H](O)[C@H]3O)c2n1 [Compound 15, 5,7-Diamino-3-β-D-ribofuranosylthiazolo[4,5-d]pyrimidin-2-one] |
| > 160 °C (dec.) |  |  | COc1nc(N)nc2c1sc(=O)n2[C@@H]1O[C@H](CO)[C@@H](O)[C@H]1O [Compound 14, 5-Amino-3-β-D-ribofuranosyl-7-methoxy-thiazolo[4,5-d]pyrimidin-2-one] |
| > 112.4 °C (dec.) |  |  | Nc1nc(N2CCCC2)c2sc(=O)n([C@@H]3O[C@H](CO)[C@@H](O)[C@H]3O)c2n1 [Compound 23, 5-Amino-7-pyrrolidino-3-β-D-ribofuranosylthiazolo[4,5-d]pyrimidin-2-one] |

The remaining lines, values behind:

| SMILES | melting point | Caco2 transport compared with 79 (Caco-2 cells) | Papp A→B (in vitro) |
| --- | --- | --- | --- |
| CN[C@H](C(=O)OC[C@H]1O[C@@H](n2c(=O)sc3c(O)nc(N)nc32)[C@H](O)[C@@H]1O)C(C)C (as salt: hydrochloride) [Compound 11, 5-Amino-3-(5′-O-[α-L-N-methylvalinyl]-β-D-ribofuranosyl)thiazolo[4,5-d]pyrimidine-2,7-dione Hydrochloride] | > 180 °C (dec.) |  |  |
| CC(C)[C@H](N)C(=O)OC[C@H]1O[C@@H](n2c(=O)sc3c(O)nc(N)nc32)[C@H](O)[C@@H]1O (as salt: hydrochloride) [Compound 3, 5-Amino-3-(5′-O-L-valinyl-β-D-ribofuranosyl)thiazolo[4,5-d]pyrimidine-2,7-dione Dihydrochloride] | 166 to 168 °C (dec.) |  |  |
| CC(=O)OC[C@H]1O[C@@H](n2c(=O)sc3cnc(N)nc32)[C@H](OC(C)=O)[C@@H]1OC(C)=O [Compound 78, 5-Amino-3-(2′,3′,5′-tri-O-acetyl-β-D-ribofuranosyl)-3H-thiazolo[4,5-d]pyrimidin-2-one] | 121 to 123 °C | significantly improved transport over 79 | 60 ×10⁻⁶ cm/s |
| Nc1nc(NC2CCCC2)c2sc(=O)n([C@@H]3O[C@H](CO)[C@@H](O)[C@H]3O)c2n1 [Compound 22, 5-Amino-7-cyclopentylamino-3-β-D-ribofuranosylthiazolo[4,5-d]pyrimidin-2-one] | > 108 °C (dec.) |  |  |
| CC(=O)O[C@@H]1[C@H](OC(C)=O)[C@@H](CO)O[C@H]1n1c(=O)sc2cnc(N)nc21 [Compound 89, 5-Amino-3-(2′,3′-di-O-acetyl-β-D-ribofuranosyl)-3H-thiazolo[4,5-d]pyrimidin-2-one] | 109 to 111 °C | significantly improved transport over 79 | 20 ×10⁻⁶ cm/s |
| Nc1ncc2sc(=O)n([C@@H]3O[C@H](CO)[C@@H](O)[C@H]3O)c2n1 [Compound 79, 5-Amino-3-β-D-ribofuranosyl-3H-thiazolo-[4,5-d]pyrimidin-2-one] | 220 °C (dec.) |  | 10 ×10⁻⁶ cm/s |
